# Test system: lung function
# Assay: Example 1: percent predicted HGB corrected DLco change from baseline
# Format: in vivo, human
# Settings: mean (SD)
# Text: Change From Baseline in Percent Predicted Hemoglobin (HGB) Corrected Diffusing Capacity of Lung for Carbon Monoxide (DLco) at Each Specified Time Points. DLco is a measurement of the ability of the lungs to transfer gases from the air to the blood. Change from baseline in diffusing capacity of the lung for carbon monoxide (percent predicted hemoglobin level corrected) was reported for this measure. Baseline value was defined as valid and last non-missing value obtained within 28 days prior to participant receiving first study medication. EOT visit was performed within 3 days after the participant's last dose of study drug. […] Analysis was performed on mITT population. Here, ‘number analyzed’=participants with available data for each specified category. Here, ‘O’ in the number analyzed field signifies that none of the participants were available for the analysis at the specified time points.
smiles,measurement,setting,value
"CC(C)NC(=O)COc1cccc(-c2nc(Nc3ccc4[nH]ncc4c3)c3ccccc3n2)c1 [Belumosudil, 2-{3-[4-(1H-indazol-5-ylamino)-2-quinazolinyl]phenoxy}-N-(propan-2-yl) acetamide]",Change From Baseline in Percent Predicted Hemoglobin (HGB) Corrected Diffusing Capacity of Lung for Carbon Monoxide (DLco),"Cohort 2: 200 mg BID, Cycle 16, Day 1",−6.618 (15.443) Percent Predicted HGB Corrected DLco
same,Change From Baseline in Percent Predicted Hemoglobin (HGB) Corrected Diffusing Capacity of Lung for Carbon Monoxide (DLco),"Cohort 2: 200 mg BID, Cycle 17, Day 1",8.458 (6.229) Percent Predicted HGB Corrected DLco
same,Change From Baseline in Percent Predicted Hemoglobin (HGB) Corrected Diffusing Capacity of Lung for Carbon Monoxide (DLco),"Cohort 2: 200 mg BID, Cycle 18, Day 1",15.543 (11.753) Percent Predicted HGB Corrected DLco
same,Change From Baseline in Percent Predicted Hemoglobin (HGB) Corrected Diffusing Capacity of Lung for Carbon Monoxide (DLco),"Cohort 2: 200 mg BID, Cycle 19, Day 1",1.824 (8.539) Percent Predicted HGB Corrected DLco
same,Change From Baseline in Percent Predicted Hemoglobin (HGB) Corrected Diffusing Capacity of Lung for Carbon Monoxide (DLco),"Cohort 2: 200 mg BID, Cycle 20, Day 1",−14.692 (—) Percent Predicted HGB Corrected DLco
same,Change From Baseline in Percent Predicted Hemoglobin (HGB) Corrected Diffusing Capacity of Lung for Carbon Monoxide (DLco),"Cohort 2: 200 mg BID, Cycle 21, Day 1",−10.661 (—) Percent Predicted HGB Corrected DLco
same,Change From Baseline in Percent Predicted Hemoglobin (HGB) Corrected Diffusing Capacity of Lung for Carbon Monoxide (DLco),"Cohort 2: 200 mg BID, Cycle 22, Day 1",3.347 (3.560) Percent Predicted HGB Corrected DLco
same,Change From Baseline in Percent Predicted Hemoglobin (HGB) Corrected Diffusing Capacity of Lung for Carbon Monoxide (DLco),"Cohort 2: 200 mg BID, Cycle 23, Day 1",−15.184 (20.181) Percent Predicted HGB Corrected DLco
same,Change From Baseline in Percent Predicted Hemoglobin (HGB) Corrected Diffusing Capacity of Lung for Carbon Monoxide (DLco),"Cohort 2: 200 mg BID, Cycle 24, Day 1",−18.095 (—) Percent Predicted HGB Corrected DLco
same,Change From Baseline in Percent Predicted Hemoglobin (HGB) Corrected Diffusing Capacity of Lung for Carbon Monoxide (DLco),"Cohort 2: 200 mg BID, Cycle 25, Day 1",6.289 (2.469) Percent Predicted HGB Corrected DLco
same,Change From Baseline in Percent Predicted Hemoglobin (HGB) Corrected Diffusing Capacity of Lung for Carbon Monoxide (DLco),"Cohort 2: 200 mg BID, Cycle 27, Day 1",−9.914 (15.387) Percent Predicted HGB Corrected DLco
same,Change From Baseline in Percent Predicted Hemoglobin (HGB) Corrected Diffusing Capacity of Lung for Carbon Monoxide (DLco),"Cohort 2: 200 mg BID, Cycle 29, Day 1",−18.814 (24.960) Percent Predicted HGB Corrected DLco
same,Change From Baseline in Percent Predicted Hemoglobin (HGB) Corrected Diffusing Capacity of Lung for Carbon Monoxide (DLco),"Cohort 2: 200 mg BID, Cycle 31, Day 1",−0.800 (17.528) Percent Predicted HGB Corrected DLco
same,Change From Baseline in Percent Predicted Hemoglobin (HGB) Corrected Diffusing Capacity of Lung for Carbon Monoxide (DLco),"Cohort 2: 200 mg BID, Cycle 33, Day 1",−5.962 (10.550) Percent Predicted HGB Corrected DLco
same,Change From Baseline in Percent Predicted Hemoglobin (HGB) Corrected Diffusing Capacity of Lung for Carbon Monoxide (DLco),"Cohort 2: 200 mg BID, Cycle 35, Day 1",−0.426 (6.677) Percent Predicted HGB Corrected DLco
same,Change From Baseline in Percent Predicted Hemoglobin (HGB) Corrected Diffusing Capacity of Lung for Carbon Monoxide (DLco),"Cohort 2: 200 mg BID, Cycle 37, Day 1",−19.228 (—) Percent Predicted HGB Corrected DLco
same,Change From Baseline in Percent Predicted Hemoglobin (HGB) Corrected Diffusing Capacity of Lung for Carbon Monoxide (DLco),"Cohort 2: 200 mg BID, Cycle 39, Day 1",−6.813 (12.810) Percent Predicted HGB Corrected DLco
same,Change From Baseline in Percent Predicted Hemoglobin (HGB) Corrected Diffusing Capacity of Lung for Carbon Monoxide (DLco),"Cohort 2: 200 mg BID, Cycle 43, Day 1",8.775 (—) Percent Predicted HGB Corrected DLco
same,Change From Baseline in Percent Predicted Hemoglobin (HGB) Corrected Diffusing Capacity of Lung for Carbon Monoxide (DLco),"Cohort 2: 200 mg BID, EOT",0.985 (5.919) Percent Predicted HGB Corrected DLco
same,Change From Baseline in Percent Predicted Hemoglobin (HGB) Corrected Diffusing Capacity of Lung for Carbon Monoxide (DLco),"Cohort 3: 400 mg QD, Cycle 2, Day 1",−5.243 (9.830) Percent Predicted HGB Corrected DLco
same,Change From Baseline in Percent Predicted Hemoglobin (HGB) Corrected Diffusing Capacity of Lung for Carbon Monoxide (DLco),"Cohort 3: 400 mg QD, Cycle 3, Day 1",−3.928 (9.492) Percent Predicted HGB Corrected DLco
same,Change From Baseline in Percent Predicted Hemoglobin (HGB) Corrected Diffusing Capacity of Lung for Carbon Monoxide (DLco),"Cohort 3: 400 mg QD, Cycle 4, Day 1",0.278 (9.683) Percent Predicted HGB Corrected DLco
same,Change From Baseline in Percent Predicted Hemoglobin (HGB) Corrected Diffusing Capacity of Lung for Carbon Monoxide (DLco),"Cohort 3: 400 mg QD, Cycle 5, Day 1",−4.111 (9.138) Percent Predicted HGB Corrected DLco
same,Change From Baseline in Percent Predicted Hemoglobin (HGB) Corrected Diffusing Capacity of Lung for Carbon Monoxide (DLco),"Cohort 3: 400 mg QD, Cycle 6, Day 1",−3.143 (10.385) Percent Predicted HGB Corrected DLco
same,Change From Baseline in Percent Predicted Hemoglobin (HGB) Corrected Diffusing Capacity of Lung for Carbon Monoxide (DLco),"Cohort 3: 400 mg QD, Cycle 7, Day 1",−4.275 (11.464) Percent Predicted HGB Corrected DLco
same,Change From Baseline in Percent Predicted Hemoglobin (HGB) Corrected Diffusing Capacity of Lung for Carbon Monoxide (DLco),"Cohort 3: 400 mg QD, Cycle 8, Day 1",−3.787 (11.983) Percent Predicted HGB Corrected DLco
same,Change From Baseline in Percent Predicted Hemoglobin (HGB) Corrected Diffusing Capacity of Lung for Carbon Monoxide (DLco),"Cohort 3: 400 mg QD, Cycle 9, Day 1",−2.540 (11.897) Percent Predicted HGB Corrected DLco
same,Change From Baseline in Percent Predicted Hemoglobin (HGB) Corrected Diffusing Capacity of Lung for Carbon Monoxide (DLco),"Cohort 3: 400 mg QD, Cycle 10, Day 1",1.328 (8.887) Percent Predicted HGB Corrected DLco
same,Change From Baseline in Percent Predicted Hemoglobin (HGB) Corrected Diffusing Capacity of Lung for Carbon Monoxide (DLco),"Cohort 3: 400 mg QD, Cycle 11, Day 1",−2.720 (10.920) Percent Predicted HGB Corrected DLco
same,Change From Baseline in Percent Predicted Hemoglobin (HGB) Corrected Diffusing Capacity of Lung for Carbon Monoxide (DLco),"Cohort 3: 400 mg QD, Cycle 12, Day 1",−1.378 (6.364) Percent Predicted HGB Corrected DLco
same,Change From Baseline in Percent Predicted Hemoglobin (HGB) Corrected Diffusing Capacity of Lung for Carbon Monoxide (DLco),"Cohort 3: 400 mg QD, Cycle 13, Day 1",2.091 (13.290) Percent Predicted HGB Corrected DLco
same,Change From Baseline in Percent Predicted Hemoglobin (HGB) Corrected Diffusing Capacity of Lung for Carbon Monoxide (DLco),"Cohort 3: 400 mg QD, Cycle 14, Day 1",0.309 (11.651) Percent Predicted HGB Corrected DLco
same,Change From Baseline in Percent Predicted Hemoglobin (HGB) Corrected Diffusing Capacity of Lung for Carbon Monoxide (DLco),"Cohort 3: 400 mg QD, Cycle 15, Day 1",−5.309 (11.514) Percent Predicted HGB Corrected DLco
same,Change From Baseline in Percent Predicted Hemoglobin (HGB) Corrected Diffusing Capacity of Lung for Carbon Monoxide (DLco),"Cohort 3: 400 mg QD, Cycle 16, Day 1",−6.840 (15.053) Percent Predicted HGB Corrected DLco
same,Change From Baseline in Percent Predicted Hemoglobin (HGB) Corrected Diffusing Capacity of Lung for Carbon Monoxide (DLco),"Cohort 3: 400 mg QD, Cycle 17, Day 1",−10.865 (13.346) Percent Predicted HGB Corrected DLco
same,Change From Baseline in Percent Predicted Hemoglobin (HGB) Corrected Diffusing Capacity of Lung for Carbon Monoxide (DLco),"Cohort 3: 400 mg QD, Cycle 18, Day 1",−3.174 (3.106) Percent Predicted HGB Corrected DLco
same,Change From Baseline in Percent Predicted Hemoglobin (HGB) Corrected Diffusing Capacity of Lung for Carbon Monoxide (DLco),"Cohort 3: 400 mg QD, Cycle 19, Day 1",−2.020 (2.436) Percent Predicted HGB Corrected DLco
same,Change From Baseline in Percent Predicted Hemoglobin (HGB) Corrected Diffusing Capacity of Lung for Carbon Monoxide (DLco),"Cohort 3: 400 mg QD, Cycle 20, Day 1",−13.517 (5.936) Percent Predicted HGB Corrected DLco
same,Change From Baseline in Percent Predicted Hemoglobin (HGB) Corrected Diffusing Capacity of Lung for Carbon Monoxide (DLco),"Cohort 3: 400 mg QD, Cycle 21, Day 1",−12.354 (12.800) Percent Predicted HGB Corrected DLco
same,Change From Baseline in Percent Predicted Hemoglobin (HGB) Corrected Diffusing Capacity of Lung for Carbon Monoxide (DLco),"Cohort 3: 400 mg QD, Cycle 22, Day 1",−17.222 (16.947) Percent Predicted HGB Corrected DLco
same,Change From Baseline in Percent Predicted Hemoglobin (HGB) Corrected Diffusing Capacity of Lung for Carbon Monoxide (DLco),"Cohort 3: 400 mg QD, Cycle 23, Day 1",−2.219 (10.614) Percent Predicted HGB Corrected DLco
same,Change From Baseline in Percent Predicted Hemoglobin (HGB) Corrected Diffusing Capacity of Lung for Carbon Monoxide (DLco),"Cohort 3: 400 mg QD, Cycle 24, Day 1",−11.430 (—) Percent Predicted HGB Corrected DLco
same,Change From Baseline in Percent Predicted Hemoglobin (HGB) Corrected Diffusing Capacity of Lung for Carbon Monoxide (DLco),"Cohort 3: 400 mg QD, Cycle 25, Day 1",−13.392 (—) Percent Predicted HGB Corrected DLco
same,Change From Baseline in Percent Predicted Hemoglobin (HGB) Corrected Diffusing Capacity of Lung for Carbon Monoxide (DLco),"Cohort 3: 400 mg QD, Cycle 27, Day 1",−11.154 (—) Percent Predicted HGB Corrected DLco
same,Change From Baseline in Percent Predicted Hemoglobin (HGB) Corrected Diffusing Capacity of Lung for Carbon Monoxide (DLco),"Cohort 3: 400 mg QD, Cycle 29, Day 1",8.613 (—) Percent Predicted HGB Corrected DLco
same,Change From Baseline in Percent Predicted Hemoglobin (HGB) Corrected Diffusing Capacity of Lung for Carbon Monoxide (DLco),"Cohort 3: 400 mg QD, Cycle 31, Day 1",10.833 (—) Percent Predicted HGB Corrected DLco
same,Change From Baseline in Percent Predicted Hemoglobin (HGB) Corrected Diffusing Capacity of Lung for Carbon Monoxide (DLco),"Cohort 3: 400 mg QD, Cycle 35, Day 1",5.088 (—) Percent Predicted HGB Corrected DLco
same,Change From Baseline in Percent Predicted Hemoglobin (HGB) Corrected Diffusing Capacity of Lung for Carbon Monoxide (DLco),"Cohort 3: 400 mg QD, Cycle 36, Day 1",10.372 (—) Percent Predicted HGB Corrected DLco
same,Change From Baseline in Percent Predicted Hemoglobin (HGB) Corrected Diffusing Capacity of Lung for Carbon Monoxide (DLco),"Cohort 3: 400 mg QD, Cycle 39, Day 1",5.902 (—) Percent Predicted HGB Corrected DLco
same,Change From Baseline in Percent Predicted Hemoglobin (HGB) Corrected Diffusing Capacity of Lung for Carbon Monoxide (DLco),"Cohort 3: 400 mg QD, EOT",−10.371 (14.208) Percent Predicted HGB Corrected DLco

# Source: patent US20260027116A1, “Methods of Treating Chronic Graft-Versus-Host Disease Following Allogeneic Hematopoietic Stem Cell Transplantation” (Kadmon Corporation, LLC, priority 2022, published 2026)
